From ChEMBL document CHEMBL2346624, “Pyrrolopyrazines as selective spleen tyrosine kinase inhibitors” (J Med Chem, 2013)
≈ marks a conversion by molar mass, not a printed value.

Legend:
[1] = Aqueous solubility of the compound by lyophilisate solubility assay; format: physicochemical; details: buffer
Liver microsomes = test: Metabolic stability in human liver microsomes assessed as GSH adduct formation; format: ADME, Microsome
[2] = Metabolic stability in human liver microsomes; format: ADME, Microsome; details: read-out: Stability
[3] = Metabolic stability in rat liver microsomes; format: ADME, Microsome; details: read-out: Stability

SMILES | solubility [1] | Stability (Liver microsomes) | CLhep predicted [2] | CLhep predicted [3]
CC(C)(C)NC(=O)c1c[nH]c2ncc(-c3nn(C4CCNCC4)c4cc(F)ccc34)nc12 | < 1 µg/mL | Stable | 3 mL/min/kg | 6 mL/min/kg
CN(C)CCCn1nc(-c2cnc3[nH]cc(C(=O)NC(C)(C)C)c3n2)c2cc(OC(F)F)ccc21 | < 1 µg/mL | Stable | 9 mL/min/kg | 46 mL/min/kg
NC(=O)c1cnc(N[C@@H]2CCCC[C@@H]2N)nc1Nc1cccc(-n2nccn2)c1 | < 1 µg/mL | Stable | 3 mL/min/kg | 10 mL/min/kg
COc1ccc(Nc2nc(-c3cccc(C(=O)Nc4ccc(C(=O)O)cc4)c3)nc3scnc23)cc1OC | < 1 µg/mL | – | – | –
Cn1nc(-c2cnc3[nH]cc(C(=O)N[C@H]4C[C@H](O)C4)c3n2)c2ccc(F)cc21 | < 1 µg/mL | – | 17 mL/min/kg | 43 mL/min/kg
CC(C)(C)NC(=O)c1c[nH]c2ncc(-c3nn(CCCS(C)(=O)=O)c4cc(F)ccc34)nc12 | < 1 µg/mL | – | 8 mL/min/kg | 43 mL/min/kg
COc1cc(Nc2ncc(F)c(Nc3ccc4c(n3)N(COP(=O)(O)O)C(=O)C(C)(C)O4)n2)cc(OC)c1OC [FOSTAMATINIB] | < 1 µg/mL | Unstable | 18 mL/min/kg | 47 mL/min/kg
CC(C)(C)NC(=O)c1c[nH]c2ncc(-c3n[nH]c4ccc(OC(F)F)cc34)nc12 | < 1 µg/mL | Stable | 10 mL/min/kg | 30 mL/min/kg
CC(C)NC(=O)c1c[nH]c2ncc(-c3nn(C)c4c3CC(C)(C)CC4)nc12 | < 1 µg/mL | – | 19 mL/min/kg | 50 mL/min/kg

Second part, the molecule after the results:

solubility [1] | Stability (Liver microsomes) | CLhep predicted [2] | CLhep predicted [3] | SMILES
< 1 µg/mL | – | 18 mL/min/kg | 51 mL/min/kg | Cn1nc(-c2cnc3[nH]cc(C(=O)NC(C)(C)C)c3n2)c2cc(OC(F)F)ccc21
< 1 µg/mL | Stable | 16 mL/min/kg | 47 mL/min/kg | C[C@@H](CO)NC(=O)c1c[nH]c2ncc(-c3nn(C)c4cc(Cl)ccc34)nc12
< 1 µg/mL | Stable | 14 mL/min/kg | 35 mL/min/kg | CC(C)(CO)NC(=O)c1c[nH]c2ncc(-n3ncc4ccc(Cl)cc43)nc12
< 1 µg/mL | – | 11 mL/min/kg | 37 mL/min/kg | COc1ccc2cnn(-c3cnc4[nH]cc(C(=O)NC(C)(C)C)c4n3)c2c1
586 µg/mL (≈ 1170 µM) | – | 12 mL/min/kg | 41 mL/min/kg | CN(C)CCCn1nc(-c2cnc3[nH]cc(C(=O)NC(C)(C)CO)c3n2)c2cc(OC(F)F)ccc21
< 1 µg/mL | – | 4 mL/min/kg | 23 mL/min/kg | CC(C)(C)NC(=O)c1c[nH]c2ncc(-c3nn(CCC(O)CO)c4cc(F)ccc34)nc12 (stereo unspecified)
< 1 µg/mL | – | 8 mL/min/kg | 49 mL/min/kg | CC(C)(C)NC(=O)c1c[nH]c2ncc(-c3nn(CCC(O)CO)c4ccc(OC(F)F)cc34)nc12 (stereo unspecified)
< 1 µg/mL | – | 7 mL/min/kg | 51 mL/min/kg | CC(C)(C)NC(=O)c1c[nH]c2ncc(-c3n[nH]c4c(CO)cccc34)nc12
